Laboratory results as given in PubChem BioAssay (NCI).
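Cultured in 96-well plates, cells were exposed to test compound for 48 hours across five concentrations. GI50: concentration for 50% inhibition of growth. TGI marks complete inhibition of growth.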

Tests used:
Experiment in all cases: growth of human tumour cells (NCI), 48 h
ACHN renal = test system: ACHN renal
HOP-92 NSCLC = test system: HOP-92 NSCLC
KM12 colon = test system: KM12 colon
OVCAR-8 ovarian = test system: OVCAR-8 ovarian
SK-MEL-5 melanoma = test system: SK-MEL-5 melanoma
SW-620 colon = test system: SW-620 colon
UACC-257 melanoma = test system: UACC-257 melanoma
CCRF-CEM leukemia = test system: CCRF-CEM leukemia
RPMI-8226 leukemia = test system: RPMI-8226 leukemia
LOX IMVI melanoma = test system: LOX IMVI melanoma

SMILES | TGI (ACHN renal) [µM] | TGI (HOP-92 NSCLC) [µM] | TGI (KM12 colon) [µM] | TGI (OVCAR-8 ovarian) [µM] | TGI (SK-MEL-5 melanoma) [µM] | TGI (SW-620 colon) [µM] | TGI (UACC-257 melanoma) [µM] | GI50 (ACHN renal) [µM] | GI50 (CCRF-CEM leukemia) [µM] | TGI (CCRF-CEM leukemia) [µM] | GI50 (HOP-92 NSCLC) [µM] | GI50 (OVCAR-8 ovarian) [µM] | GI50 (RPMI-8226 leukemia) [µM] | TGI (RPMI-8226 leukemia) [µM] | GI50 (SW-620 colon) [µM] | GI50 (UACC-257 melanoma) [µM] | TGI (LOX IMVI melanoma) [µM] | GI50 (KM12 colon) [µM] | GI50 (LOX IMVI melanoma) [µM] | GI50 (SK-MEL-5 melanoma) [µM]
C=CC1=C(C)C2=NC1=CC1=NC(=CC3=C(C)C4=C(O)[C@H](C(=O)OC)C(=C5NC(=C2)[C@@H](C)[C@@H]5CCC(=O)O)C4=N3)C(CC)=C1C | 7.21 | 3.98 | > 20.5 | > 100 | 3.75 | 10.8 | 42.7 | – | – | – | – | – | – | – | – | – | – | – | – | –
CCCCCCCCCCCCCC[n+]1cccc(C(N)=O)c1 | 17.9 | 3.49 | – | 6.22 | – | 6.72 | 8.46 | 3.46 | 1.5 | 4.47 | 0.657 | 2.12 | 1.87 | 4.44 | 1.98 | 2.34 | – | – | – | –
CC1(C)CC(=O)C(CC2C(=O)c3ccccc3C2=O)C(=O)C1 | > 100 | > 100 | > 100 | > 100 | > 100 | > 100 | > 100 | – | – | > 100 | – | – | – | – | – | – | > 100 | – | – | –
N#CC(C#N)=c1c2nsnc2c(=C(C#N)C#N)c2nsnc12 | 3.23 | 3.35 | 3.85 | 3.12 | – | 3.05 | 3.53 | – | – | – | – | – | – | – | – | – | 3 | – | – | –
Cc1c2ccncc2c(C)c2c1[nH]c1ccc(O)c(OCC(F)(F)F)c12 | – | 16.5 | – | 26 | 7.5 | 19.2 | 21.4 | – | – | 7.18 | – | – | – | 5.95 | – | – | 3.27 | – | – | –
COC(=O)C1C(=O)N(CCc2c[nH]c3ccccc23)C[C@@H]2CCC(=O)C[C@H]12 (stereo not given in full) | – | > 100 | > 100 | > 100 | > 100 | > 100 | > 100 | – | – | > 100 | – | – | – | > 100 | – | – | > 100 | – | – | –
CC(=O)[CH-]C(=O)c1ccccc1.CC(=O)[CH-]C(=O)c1ccccc1.CC1(C)OCC(C2OC3OC(C)(C)OC3C2[O-])O1.CC[O-].[Ti+4] (stereo not given) | 35.8 | 20.6 | 26.8 | 26.9 | 23.9 | 44.5 | 54.8 | 17.3 | 4.71 | > 100 | 6.84 | 11.5 | – | – | 15.6 | 19.4 | 29.8 | 11.4 | 14.7 | 10.8
c1ccc2[nH]c(CNc3ccc(C4C[Se]N=N4)cc3)nc2c1 (stereo not given) | > 100 | > 100 | > 100 | > 100 | 46.4 | > 100 | – | – | – | 82.5 | – | – | – | 81.3 | – | – | > 100 | – | – | –
O=S1CSSC1 | 94.9 | 57.4 | 55.8 | 52 | – | 31.7 | 36.4 | – | – | 46.2 | – | – | – | – | – | – | 20 | – | – | –
c1ccc(-c2nc(N3CCCNCC3)c3nc(-c4ccccc4)oc3n2)cc1 | 3.11 | – | 3.38 | 4.93 | 3.18 | 3.47 | 3.43 | 1.71 | – | – | – | 2.13 | – | – | 1.76 | 1.8 | – | 1.83 | – | 1.77
COc1cc(CNc2nc3ccc(C(F)(F)F)cc3nc2-c2ccccc2)cc(OC)c1OC | – | – | > 100 | > 100 | 87 | > 100 | > 100 | – | – | > 100 | – | – | – | > 100 | – | – | > 100 | – | – | –
Clc1ccc2c(c1)N(c1ncnc3ccc(-c4cnc5[nH]ncc5c4)cc13)CC2 | > 100 | > 100 | > 100 | > 100 | – | – | > 100 | 0.317 | 0.547 | > 100 | 0.169 | 0.966 | 0.759 | > 100 | – | > 100 | > 100 | 3.53 | 0.338 | –
O=C1/C(=C/c2cccc([N+](=O)[O-])c2)Sc2scc(-c3ccc([N+](=O)[O-])cc3)[n+]21 | 49.9 | 72.3 | 33.3 | > 100 | > 100 | > 100 | 69.8 | – | – | – | – | – | – | – | – | – | 46.3 | – | – | –
CCOC(=O)C1(Cc2ccc3ccccc3c2)CCCCC(=O)N1 (stereo not given) | > 100 | 59.2 | – | > 100 | – | > 100 | – | – | – | > 100 | – | – | – | 58.2 | – | – | > 100 | – | – | –
Cc1c(C)c(CC(=O)N2CC2)c(C)c(C)c1CC(=O)N1CC1 | 25.7 | 44.9 | 40.3 | > 49.6 | – | > 57.2 | 50 | – | – | > 48.8 | – | – | – | 55.5 | – | – | > 49 | – | – | –
O=C(O)c1ccccc1C(=O)c1ccc2c(c1)Cc1ccccc1-2 | > 100 | > 100 | > 100 | > 100 | > 100 | > 100 | > 100 | – | – | – | – | – | – | > 100 | – | – | > 100 | – | – | –
CC1=NN(C(=O)c2ccncc2)C(=O)C1N=Nc1ccc(F)cc1 (stereo not given) | > 100 | > 100 | – | > 100 | > 100 | > 100 | > 100 | – | – | – | – | – | – | > 100 | – | – | > 100 | – | – | –
C/C1=C\CC[C@@](C)(O)[C@@H]2C[C@H](CC/C(C)=C/CC1)C1(CC1)C(=O)O2 | > 100 | – | 68.5 | > 100 | 35 | 73.1 | > 100 | 34.4 | 76.1 | > 100 | – | 61.5 | 20.3 | 46.4 | 27.1 | 77.8 | 34.5 | 25.4 | 18.8 | 17.4
CN(C)C(=S)Nc1nnc(Nc2ccccc2)s1 | > 100 | > 100 | – | > 100 | > 100 | > 100 | > 100 | – | – | > 100 | – | – | – | – | – | – | > 100 | – | – | –
COc1c(O)c(OC)c2oc(-c3ccc(O)cc3)c(OC)c(=O)c2c1O | > 100 | – | > 100 | > 100 | > 100 | > 100 | > 100 | – | – | > 100 | – | – | – | > 100 | – | – | > 100 | – | – | –
Cc1cc(C)n(C2=NS(=O)(=O)c3ccccc3N2C)n1 | > 100 | > 100 | > 100 | > 100 | > 100 | > 100 | > 100 | – | – | > 100 | – | – | – | – | – | – | > 100 | – | – | –
